Measurements as given in patent US20240368204A1, “SMALL MOLECULAR CD73 ANTAGONIST AND USE THEREOF” (XIZANG HAISCO PHARMACEUTICAL CO., LTD., priority 2021, published 2024).

Each molecule was assayed against Human recombinant protein CD73 (Homo sapiens (Human), UniProt P21589) (assay: CD73 enzyme activity in vitro (Malachite Green, AMP substrate)). Conditions: recombinant CD73, 100 μM AMP substrate solution, absorbance at 620 nm.
Format: biochemical
Procedure: 1. Test Method for CD73 Enzyme Activity In Vitro
Human recombinant protein CD73 (Acro, Cat. No. CD3-H52H7) was prepared into a 0.04 ng/μL protein solution, and substrate AMP (Sigma, Cat. No. A1752-1G) was prepared into a 100 μM substrate solution. 5 μL of compounds at different concentrations were added into a 384-well white transparent bottom plate, 5 μL of 0.04 ng/μL recombinant CD73 enzyme solution was added, and the mixture was incubated at room temperature for 15 minutes. 10 μL of 100 μM substrate solution was added, the mixture was incubated at 37° C. for 40 minutes, 5 μL of Malachite Green Reagent A (R&D, Cat. No. DY996) was added, the mixture was incubated at room temperature for 10 minutes, and finally, 5 μL of Malachite Green Reagent B was added, the mixture was incubated at room temperature for 20 minutes, and a microplate reader PHERAstar FSX instrument was used to detect the absorbance at 620 nm. IC50 values were calculated using the origin9.2 software. The calculation formula of the inhibition rate was shown in Formula 1, wherein ODsample is the readout for the compound, ODnegative is the readout for the negative control without substrate, and ODpositive is the readout for the vehicle control.

Human recombinant protein CD73, sequence (P21589 27-574): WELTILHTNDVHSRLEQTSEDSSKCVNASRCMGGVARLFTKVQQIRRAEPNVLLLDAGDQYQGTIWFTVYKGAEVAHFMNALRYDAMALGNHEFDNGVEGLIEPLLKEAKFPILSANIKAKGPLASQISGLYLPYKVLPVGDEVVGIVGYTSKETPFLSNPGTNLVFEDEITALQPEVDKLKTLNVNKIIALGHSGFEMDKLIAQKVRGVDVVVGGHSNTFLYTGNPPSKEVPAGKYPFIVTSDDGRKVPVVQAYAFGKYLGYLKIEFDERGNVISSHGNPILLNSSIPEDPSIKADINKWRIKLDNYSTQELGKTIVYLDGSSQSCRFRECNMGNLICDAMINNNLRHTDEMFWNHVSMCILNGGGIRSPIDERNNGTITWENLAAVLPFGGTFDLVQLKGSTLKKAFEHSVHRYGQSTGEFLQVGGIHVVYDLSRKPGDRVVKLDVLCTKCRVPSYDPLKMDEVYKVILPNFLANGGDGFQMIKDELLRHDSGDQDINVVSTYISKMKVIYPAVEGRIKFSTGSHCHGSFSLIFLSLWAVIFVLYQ

Compound	IC50 [nM]
C[C@H](Nc1cc(Cl)nc2c1cnn2[C@@H]1O[C@H](COP(=O)(O)CP(=O)(O)O)[C@](O)(CO)[C@H]1O)c1ccccc1F [Compound 12, (((((2R,3S,4R,5R)-5-(6-chloro-4-(((S)-1-(2-fluorophenyl)ethyl)amino)-1H-pyrazolo[3,4-b]pyridin-1-yl)-3,4-dihydroxy-3-(hydroxymethyl)tetrahydrofuran-2-yl)methoxy)(hydroxy)phosphoryl)methyl)phosphonic acid]	0.4
CONc1nc(Cl)nc2c1cnn2[C@@H]1O[C@H](COP(=O)(O)CP(=O)(O)O)[C@@H](O)[C@H]1O [Compound 18, (((((2R,3S,4R,5R)-5-(6-chloro-4-(methoxyamino)-1H-pyrazolo[3,4-d]pyrimidin-1-yl)-3,4-dihydroxytetrahydrofuran-2-yl)methoxy)(hydroxy)phosphoryl)methyl)phosphonic acid]	1.8
CONc1cc(Cl)nc2c1cnn2[C@@H]1O[C@H](COP(=O)(O)CP(=O)(O)O)[C@@H](O)[C@H]1O [Compound 24, (((((2R,3S,4R,5R)-5-(6-chloro-4-(methoxyamino)-1H-pyrazolo[3,4-b]pyridin-1-yl)-3,4-dihydroxytetrahydrofuran-2-yl)methoxy)(hydroxy)phosphoryl)methyl) phosphonic acid]	5.3
O=P(O)(O)CP(=O)(O)OC[C@H]1O[C@@H](n2ncc3c(NOC4CCCC4)nc(Cl)nc32)[C@H](O)[C@@H]1O [Compound 25, (((((2R,3S,4R,5R)-5-(6-chloro-4-((cyclopentyloxy)amino)-1H-pyrazolo[3,4-d]pyrimidin-1-yl)-3,4-dihydroxytetrahydrofuran-2-yl)methoxy)(hydroxy)phosphoryl)methyl)phosphonic acid]	0.4
CC(C)ONc1cc(Cl)nc2c1cnn2[C@@H]1O[C@H](COP(=O)(O)CP(=O)(O)O)[C@@H](O)[C@H]1O [Compound 26, (((((2R,3 S,4R,5R)-5-(6-chloro-4-(isopropoxyamino)-1H-pyrazolo[3,4-b]pyridin-1-yl)-3,4-dihydroxytetrahydrofuran-2-yl)methoxy)(hydroxy)phosphoryl)methyl)phosphonic acid]	2.9
CC(C)ONc1nc(Cl)nc2c1cnn2[C@@H]1O[C@H](COP(=O)(O)CP(=O)(O)O)[C@@H](O)[C@H]1O [Compound 27, (((((2R,3S,4R,5R)-5-(6-chloro-4-(isopropoxyamino)-1H-pyrazolo[3,4-d]pyrimidin-1-yl)-3,4-dihydroxytetrahydrofuran-2-yl)methoxy)(hydroxy)phosphoryl)methyl)phosphonic acid]	1.7
O=P(O)(O)CP(=O)(O)OC[C@H]1O[C@@H](n2ncc3c(N4C[C@H]5CCC[C@H]5C4)nc(Cl)nc32)[C@H](O)[C@@]1(O)CO [Compound 28, (((((2R,3S,4R,5R)-5-(6-chloro-4-((3aR,6aS)-hexahydrocyclopenta[c]pyrrol-2(1H)-yl)-1H-pyrazolo[3,4-d]pyrimidin-1-yl)-3,4-dihydroxy-3-(hydroxymethyl)tetrahydrofuran-2-yl)methoxy)(hydroxy)phosphoryl)methyl)phosphonic acid]	0.7
O=P(O)(O)CP(=O)(O)OC[C@H]1O[C@@H](n2ncc3c(N4C[C@H]5CCC[C@H]5C4)cc(Cl)nc32)[C@H](O)[C@@]1(O)CO [Compound 29, (((((2R,3S,4R,5R)-5-(6-chloro-4-((3aR,6aS)-hexahydrocyclopenta[c]pyrrol-2(1H)-yl)-1H-pyrazolo[3,4-b]pyridin-1-yl)-3,4-dihydroxy-3-(hydroxymethyl)tetrahydrofuran-2-yl)methoxy)(hydroxy)phosphoryl)methyl) phosphonic acid]	2.6
O=P(O)(O)CP(=O)(O)OC[C@H]1O[C@@H](n2ncc3c(NOCc4ccccc4)nc(Cl)nc32)[C@H](O)[C@@H]1O [Compound 30, (((((2R,3S,4R,5R)-5-(4-((benzyloxy)amino)-6-chloro-1H-pyrazolo[3,4-d]pyrimidin-1-yl)-3,4-dihydroxytetrahydrofuran-2-yl)methoxy)(hydroxy)phosphoryl)methyl)phosphonic acid]	0.2
O=P(O)(O)CP(=O)(O)OC[C@H]1O[C@H](n2ncc3c(N4C[C@H]5CCC[C@H]5C4)nc(Cl)nc32)[C@H](O)[C@@]1(O)CO [Compound 31, (((((2R,3S,4R,5S)-5-(6-chloro-4-((3aR,6aS)-hexahydrocyclopenta[c]pyrrol-2(1H)-yl)-1H-pyrazolo[3,4-d]pyrimidin-1-yl)-3,4-dihydroxy-3-(hydroxymethyl)tetrahydrofuran-2-yl)methoxy)(hydroxy)phosphoryl)methyl)phosphonic acid]	0.7
O=P(O)(O)CP(=O)(O)OC[C@H]1O[C@@H](n2ncc3c(N4C[C@H]5CCC[C@H]5C4)cc(Cl)nc32)[C@H](O)[C@@]1(O)C(F)F [Compound 32, (((((2R,3S,4R,5R)-5-(6-chloro-4-((3aR,6aS)-hexahydrocyclopenta[c]pyrrol-2(1H)-yl)-1H-pyrazolo[3,4-b]pyridin-1-yl)-3-(difluoromethyl)-3,4-dihydroxytetrahydrofuran-2-yl)methoxy)(hydroxy)phosphoryl)methyl)phosphonic acid]	0.9
O=P(O)(O)CP(=O)(O)OC[C@H]1O[C@@H](n2ncc3c(N4C[C@H]5CCC[C@H]5C4)nc(Cl)nc32)[C@H](O)[C@@]1(O)C(F)F [Compound 33, (((((2R,3S,4R,5R)-5-(6-chloro-4-((3aR,6aS)-hexahydrocyclopenta[c]pyrrol-2(1H)-yl)-1H-pyrazolo[3,4-d]pyrimidin-1-yl)-3-(difluoromethyl)-3,4-dihydroxytetrahydrofuran-2-yl)methoxy)(hydroxy)phosphoryl)methyl)phosphonic acid]	1.2
C[C@@]1(O)[C@@H](COP(=O)(O)CP(=O)(O)O)O[C@@H](n2ncc3c(N4C[C@H]5CCC[C@H]5C4)nc(Cl)nc32)[C@@H]1O [Compound 38, (((((2R,3S,4R,5R)-5-(6-chloro-4-((3aR,6aS)-hexahydrocyclopenta[c]pyrrol-2(1H)-yl)-1H-pyrazolo[3,4-d]pyrimidin-1-yl)-3,4-dihydroxy-3-methyltetrahydrofuran-2-yl)methoxy)(hydroxy)phosphoryl)methyl)phosphonic acid]	0.3
C#C[C@@]1(O)[C@@H](COP(=O)(O)CP(=O)(O)O)O[C@@H](n2ncc3c(N4C[C@H]5CCC[C@H]5C4)nc(Cl)nc32)[C@@H]1O [Compound 40, (((((2R,3S,4R,5R)-5-(6-chloro-4-((3aR,6aS)-hexahydrocyclopenta[c]pyrrol-2(1H)-yl)-1H-pyrazolo[3,4-d]pyrimidin-1-yl)-3-ethynyl-3,4-dihydroxytetrahydrofuran-2-yl)methoxy)(hydroxy)phosphoryl)methyl)phosphonic acid]	0.06

These molecules were tested on B16F10 xenograft tumor (assay: B16F10 xenograft tumor model in vivo). Conditions: 30 mg/kg, single agent.
Set-up: species or system mouse
Procedure: B16F10 Xenograft Tumor Model In Vivo
B16F10 cells were purchased from ATCC, the cell medium was DMEM+10% FBS+1% double antibody, and the cells were cultured in an incubator at 37° C. under 5% CO2. After the cells had grown to a number sufficient for inoculation, the cells were harvested. The cell-containing culture solution was transferred to a 50 mL sterile centrifuge tube, and centrifuged at 1500 rpm for 3 minutes. The centrifuge tube was taken out after centrifugation, and the supernatant was discarded. The cells were resuspended in a pre-cooled PBS and centrifuged at 1500 rpm for 3 minutes, and after centrifugation, the supernatant was discarded; the process was repeated twice. Finally, the cells were resuspended in a pre-cooled PBS. After counting, the cells were diluted to 1×10^6 cells/mL with a pre-cooled PBS. […] The second day of inoculation was recorded as Day 0, and compound 28 (the vehicle was phosphate buffer saline) was given by intragastric administration every day after randomization, and animals in both the group with the anti-PD-1 antibody (anti-PD-1; BioXcell, Cat. CD279) and the group with combined drugs were injected intraperitoneally with the anti-PD-1 antibody (twice a week). The long and short diameters of the tumors were measured with an electronic vernier caliper, and the body weight of the animals was recorded. […]

Compound	TGI % (day 15) [%]
C[C@H](Nc1cc(Cl)nc2c1cnn2[C@@H]1O[C@H](COP(=O)(O)CP(=O)(O)O)[C@@H](O)[C@H]1O)c1ccccc1F [AB680, reference compound]	57.96

Same assay, conditions: 100 mg/kg, intragastric administration every day, single agent

Compound	TGI % (day 15) [%]
O=P(O)(O)CP(=O)(O)OC[C@H]1O[C@@H](n2ncc3c(N4C[C@H]5CCC[C@H]5C4)nc(Cl)nc32)[C@H](O)[C@@]1(O)CO [Compound 28, (((((2R,3S,4R,5R)-5-(6-chloro-4-((3aR,6aS)-hexahydrocyclopenta[c]pyrrol-2(1H)-yl)-1H-pyrazolo[3,4-d]pyrimidin-1-yl)-3,4-dihydroxy-3-(hydroxymethyl)tetrahydrofuran-2-yl)methoxy)(hydroxy)phosphoryl)methyl)phosphonic acid]	50.12
